Experimental data as given in patent US8377918B2 (ACC Therapeutics Inc, priority 2005, dated 2013).
Read-outs that look alike come from different tables or passages of the source.

Legend:
PC-3 cells = test: MTT cell proliferation assay, PC-3 prostate cancer cells; format: cell-based, human
Procedure: (§1) FIG. 8. […] Prostate cancer cells PC-3 and DU145 were seeded in 96-well plates at 1×10^4 cells/well. […] The cell proliferation was assayed by culturing the cells for 24 h, then adding 10 μl of MTT reagent with incubation for 2 h. The reaction was stopped by adding 100 μl of solubilization solution. The relative cell proliferation was obtained by the reading at 590 nm which was recorded in a spectrophotometer, and normalized to the value of control.
FIG. 9. […] A, Cisplatin-resistant ovarian cancer cell line A2780/CP70, and B, prostate cancer cells PC-3 were seeded in 96-well plates at 1×10^4 cells/well and incubated overnight.
(§2) FIG. 17. […] A, the prostate cancer cells PC-3 and DU145; B, colon cancer cells Colo-205 and HCT-116; C, lung cancer cells A549 and H460 cells were plated at 1×10^4 cells per well in a 96 well plate in 100 μl of media.
FIG. 18. […] A and B, the prostate cancer cells PC-3 and DU145; C, colon cancer cells Colo-205 and HCT-116; D, lung cancer cells A549 and H460 cells were plated at 1×10^4 cells per well in a 96 well plate in 100 μl of media. […] The cell proliferation was analyzed by MTT assay.
(§3) FIG. 19. […] A, prostate cancer cells PC-3; and B, DU145 cells were plated at 1×10^4 cells per well in a 96 well plate in 100 μl of media. […] Cell proliferation was examined by MTT assay.
(§4) FIG. 23. […] Cell proliferation was examined by MTT assay.

H460 cells = test: MTT cell proliferation assay, H460 lung cancer cells; format: cell-based, human; conditions: H460, 15 μM apigenin, 24 h
Procedure: FIG. 17. […] A, the prostate cancer cells PC-3 and DU145; B, colon cancer cells Colo-205 and HCT-116; C, lung cancer cells A549 and H460 cells were plated at 1×10^4 cells per well in a 96 well plate in 100 μl of media. […] FIG. 18. […] A and B, the prostate cancer cells PC-3 and DU145; C, colon cancer cells Colo-205 and HCT-116; D, lung cancer cells A549 and H460 cells were plated at 1×10^4 cells per well in a 96 well plate in 100 μl of media. […] The cell proliferation was analyzed by MTT assay. […] FIG. 22. […] A, colon cancer cells Colo-205 and HCT-116; B, lung cancer cells A549 and H460 cells were plated at 1×10^4 cells per well in a 96 well plate the day before the treatment. […] Cell proliferation was examined by MTT assay. […] FIG. 25.

Colo-205 cells = test: MTT cell proliferation assay, Colo-205 colon cancer cells; format: cell-based, human; conditions: colo-205, 15 μM apigenin, 24 h
Procedure: FIG. 17. […] A, the prostate cancer cells PC-3 and DU145; B, colon cancer cells Colo-205 and HCT-116; C, lung cancer cells A549 and H460 cells were plated at 1×10^4 cells per well in a 96 well plate in 100 μl of media. […] FIG. 20. […] A, the prostate cancer cells PC-3 and DU145; B, colon cancer cells Colo-205 and HCT-116; C, lung cancer cells A549 and H460 cells were plated at 1×10^4 cells per well in a 96 well plate. […] Cell proliferation was examined by MTT assay. […] FIG. 22. […] A, colon cancer cells Colo-205 and HCT-116; B, lung cancer cells A549 and H460 cells were plated at 1×10^4 cells per well in a 96 well plate the day before the treatment. […] Cell proliferation was examined by MTT assay. […] FIG. 24. […] The IC50 values for inhibiting cell proliferation were calculated from cell proliferation assay as described above.

[1] = test system: tumors induced by A2780/CP70 cells; test: Tumor weight of A2780/CP70 tumors on CAM; format: in vivo, chicken embryo; conditions: 2.5 μM CDDP, 10 days
Procedure: (§5) FIG. 4. […] The A2780/CP70 cells were seeded into 100 mm dish and grown to 90-100% confluence. […] In 10 days, the tumors were harvested and weighed. The blood vessel numbers of the tumor were counted under×100. At least five areas were determined. The data are mean±SD from two experiments (n=8). A, representative tumor morphology; B, tumor weight; C, relative numbers of blood vessels.

A2780/CP70 cells [2] = test: MTT cell proliferation assay, A2780/CP70 ovarian cancer cells; format: cell-based, human; conditions: for IC50: 24 h
Procedure: (§6) FIG. 1. […] (A) A2780/CP70 cells and human fibroblast GM847 cells were seeded in 96-well plate at 4×10^3 cells per well and incubated overnight. […] The cells were incubated for 24 h. Cell proliferation was determined by MTT reduction. […] Cells were trypsinized, harvested, washed once with PBS buffer, and stained using the Annexin-V-Folus Kit as per the manufacture's instructions. […] After incubation, all cells were collected and total DNA was isolated. Eight (8) μg of DNA was resolved on 1.8% agarose gel. […] (D) Treatment of GM847 cells was the same as that of 5D. […] Cleavage of caspase-3 and PARP was detected by western-blot.
FIG. 3. […] A2780/CP70 cells were seeded in 96-well plates and incubated overnight. The old medium was discarded and fresh medium with cisplatin (CDDP) in the presence or absence of apigenin (Api) was added. In 24 h, the cell proliferation was determined by means of MTT reduction method.
FIG. 9. […] A, Cisplatin-resistant ovarian cancer cell line A2780/CP70, and B, prostate cancer cells PC-3 were seeded in 96-well plates at 1×10^4 cells/well and incubated overnight. […] In 24 h, the cell proliferation was assayed by using a MTT assay kit. *indicates significant difference compared to cisplatin alone (p<0.01).

A2780/CP70 cells [3] = test: Annexin V apoptosis assay, A2780/CP70; format: cell-based, human; conditions: A2780/CP70, 10 μM cisplatin, 24 h
Procedure: as §6
FIG. 10. […] The cisplatin-resistant ovarian cancer A2780/CP70 cells were seeded in a petri dish. […] After treatment, the cells were collected and the relative cellular apoptosis was analyzed by Annexin V Kit (Roche), and compared to the control.

[4] = test system: tumors induced by A2780/CP70 cells; test: Blood vessel numbers of A2780/CP70 tumors on CAM; format: in vivo, chicken embryo; conditions: 2.5 μM CDDP alone, 10 days
Procedure: as §5

DU145 cells = test: MTT cell proliferation assay, DU145 prostate cancer cells; format: cell-based, human; conditions: DU145, 15 μM apigenin, 24 h
Procedure: as §1, §2, §3
FIG. 21. […] A, the prostate cancer cells PC-3 and DU145; B and C, colon cancer cells Colo-205 and HCT-116 were plated at 1×10^4 cells per well in a 96 well plate in 100 μl of media a day before the treatment.
as §4

[5] = test system: A2780/CP70 ovarian cancer cells; test: Cell survival by MTT reduction assay with taxol, A2780/CP70; format: cell-based, human; conditions: for IC50: Homo sapiens, A2780/CP70, 48 h, 48 h, read-out: IC50 of cell viability (cell survival)
Procedure: (§7) FIG. 11. […] PC-3 prostate cancer cells and A2780/CP70 ovarian cancer cells were seeded in 96-well plates and incubated overnight. […] After 48 h, cell survival was determined by means of MTT reduction assay.

[6] = test system: PC-3 prostate cancer cells; test: Cell survival by MTT reduction assay with taxol, PC-3; format: cell-based, human; conditions: for IC50: Homo sapiens, 48 h, read-out: IC50 of cell viability (cell survival)
Procedure: as §7

Q: `N.N.[Cl][Pt][Cl]` [cisplatin] was tested. Which “reduction of cisplatin IC50 by apigenin” value (PC-3 cells; PC-3, 10 μM apigenin) did it give?
A: 7 fold

Q: What about the IC50 (PC-3 cells; PC-3, in the presence of 10 μM apigenin, 24 h, read-out: cisplatin concentration giving 50% inhibition of cell proliferation) of the same compound?
A: 3000 nM

Q: And the “decrease of IC50 by combination with apigenin” value (H460 cells)?
A: 20 fold

Q: What about the “decrease of IC50 by apigenin” value (Colo-205 cells) of the same compound?
A: 3 fold

Q: What about the “effect on tumor growth” value [1] of the same compound?
A: slightly inhibited tumor growth

Q: What about the “reduction of cisplatin IC50 by apigenin” value (A2780/CP70 cells [2]; A2780/CP70, 10 μM apigenin) of the same compound?
A: 4 fold

Q: And the IC50 (A2780/CP70 cells [2]; A2780/CP70, cisplatin alone, read-out: concentration of cisplatin needed to inhibit 50% of cell proliferation (IC50))?
A: ~20000 nM

Q: And the IC50 (A2780/CP70 cells [2]; A2780/CP70, with addition of 10 μM apigenin, read-out: IC50 of cisplatin for cell proliferation)?
A: 5000 nM

Q: What about the “apoptosis” value (A2780/CP70 cells [3]) of the same compound?
A: low levels of apoptosis

Q: What about the “effect on blood vessel formation” value [4] of the same compound?
A: slightly inhibited the blood vessel formation

Q: For `COc1cccc2c1C(=O)c1c(O)c3c(c(O)c1C2=O)C[C@@](O)(C(=O)CO)C[C@@H]3O[C@H]1C[C@H](N)[C@H](O)[C@H](C)O1` [doxorubicin], which “reduction of IC50 of doxorubicin by apigenin” value (PC-3 cells; PC-3, 15 μM apigenin, 24 h) is on record?
A: 2 fold

Q: What about the “decrease of IC50 by combination with apigenin” value (H460 cells) of the same compound?
A: 20 fold

Q: For `O=c1[nH]cc(F)c(=O)[nH]1` [fluorouracil, reference compound], which “reduction of IC50 of fluorouracil by apigenin” value (DU145 cells) is on record?
A: 70%

Q: How did the “decrease of IC50 by apigenin” value (Colo-205 cells) turn out when `CO[C@@]12[C@H](COC(N)=O)C3=C(C(=O)C(C)=C(N)C3=O)N1C[C@@H]1N[C@@H]12` [mitomycin C] was run?
A: 7 fold

Q: How did the “taxol IC50 with apigenin, fold less than taxol alone” value ([5]; A2780/CP70, 20 μM apigenin) turn out when `CC(=O)O[C@H]1C(=O)[C@@]2(C)[C@H]([C@H](OC(=O)c3ccccc3)[C@]3(O)C[C@H](OC(=O)[C@H](O)[C@@H](NC(=O)c4ccccc4)c4ccccc4)C(C)=C1C3(C)C)[C@]1(OC(C)=O)CO[C@@H]1C[C@@H]2O` [taxol] was run?
A: 2 fold

Q: What about the IC50 ([5]; A2780/CP70, taxol alone) of the same compound?
A: 503 nM

Q: What about the IC50 ([5]; A2780/CP70, taxol with 20 μM apigenin) of the same compound?
A: 225 nM

Q: What about the IC50 ([6]; PC-3, taxol alone) of the same compound?
A: 577 nM

Q: What about the IC50 ([6]; PC-3, taxol with 20 μM apigenin) of the same compound?
A: 50.3 nM

Q: And the “taxol IC50 with apigenin, fold less than taxol alone” value ([6]; PC-3, 20 μM apigenin)?
A: 11 fold
